One data set has as its system HEK-293 normal cell line. Kind of data set: cells. It counts as cell-based. As to the method: (§1) MTT assay was conducted as previously described.^[ [44] ^] Tumor cell lines (NCI‐H460, NCI‐H838, HT‐1080, MCF‐7, PC‐3, U‐251‐MG, and U‐87 MG) were seeded in 96‐well plates at a density of 8000 cells per well in a volume of 100 µL and cultured for 24 h. Normal cell lines (HaCaT, HMEC‐1, MRC‐5, and HEK‐293) were seeded in 96‐well plates at a density of 10 000 cells per well in a volume of 100 µL and cultured for 48 h. After that, only tumor cell lines were starved with 100 µL of SFM for a further 4–6 h. Subsequently, cells were treated with 100 µL of compound solutions with different concentrations for 24 h. Cells treated with SFM and 0.5% DMSO in SFM served as blank control and growth control, respectively. Ten µL of MTT solution (5 mg mL^−1) was added to each well, followed by an additional incubation period of 2 h for tumor cells and 4 h for normal cells. Finally, the solvent in each well was swapped with 100 µL of DMSO to dissolve the formazan crystals. The absorbance was measured by the plate reader at 570 nm.
(§2) The cell viability was calculated (1) Cellviability%=ODSamplegroup−ODBlank/ODGrowthgroup−ODBlank×100%

The test system of a further data set is H460 cell line. Kind of data set: cells. It counts as cell-based. As to the method:
as §1, §2

A further data set relates to erythrocytes. It is filed as cell-based. The note with it: red cells of horse, 2 h. As to the method:
Defibrinated horse blood (1 mL) was washed 3 times with 0.9% NaCl solution to remove plasma and then resuspended in 20 mL of 0.9% NaCl solution to obtain a red blood cell (RBC) suspension. Aliquots of the RBC suspension (100 µL) were incubated with 100 µL of compound solutions at concentrations ranging from 100 to 1.5625 µM (twofold serial dilution) for 2 h at 37 °C. RBCs treated with 0.9% NaCl solution and 1% Triton X‐100 solution served as blank and positive controls, respectively. Subsequently, the samples were centrifuged at 900 × g for 10 min, and the absorbance of the supernatant was measured at 570 nm.
The hemolysis ratio was calculated as (2) Hemolysis%=ODSamplegroup−ODBlank/ODPositivegroup−ODBlank×100%

Data set [1] in a line: 50% human serum (from human male AB plasma, US origin; centrifuged to remove the lipid content). The conditions noted are these: 37 °C, up to 24 h.

Values joined by “and” are separate entries in the source; they are usually repeats but may differ in a detail not shown here. Identical values can stand only once. Like-named read-outs stand apart in the source and are kept apart here. Where a SMILES comes first, the peptide text is derived from it. [ ]: non-standard residue; d: D form. The star is where a group is joined. PEG4 = NCCOCCOCCOCCOCCC(=O)O; Piperidide = C1CCN(*)CC1

From article PMC12677599 (Advanced Science, 2025) come the findings set out here.

Turning to `O=c1[nH]cc(F)c(=O)[nH]1` [5-Fluorouracil, 5-fluorouracil, reference compound], the half-inhibitory concentration (IC50) in the data set with HEK-293 normal cell line (Homo sapiens, HEK293, read-out: IC50 Value of chemotherapeutics, HEK-293) turned out to be 430 ± 40.2 µM; in the data set with H460 cell line (Homo sapiens, NCI-H460, read-out: IC50 Value of chemotherapeutics, H460), 432 ± 61.2 µM.

Consider `CC[C@H](C)[C@H](NC(=O)[C@H](CCCCN)NC(=O)[C@@H]1CCCN1C(=O)[C@H](CC(C)C)NC(=O)[C@@H](NC(=O)[C@H](CO)NC(=O)[C@H](CCC(=O)N1CCCCC1)NC(=O)[C@H](CC(C)C)NC(=O)[C@H](CC(=O)O)NC(=O)[C@H](CC(=O)O)NC(=O)[C@H](Cc1ccccc1)NC(=O)[C@@H](NC(=O)[C@H](CCCCN)NC(=O)[C@@H]1CCCN1C(=O)[C@H](Cc1ccccc1)NC(=O)[C@H](Cc1ccccc1)NC(=O)[C@H](CCC(=O)O)NC(=O)[C@H](C)N)[C@@H](C)CC)[C@@H](C)CC)C(=O)N[C@@H](CC(C)C)C(N)=O` [239-1] (H-AEFFPKIFDDLE(Piperidide)SILPKIL-NH2), for which the half-maximal inhibitory concentration (IC50) in the data set on HEK-293 normal cell line (24 h) was greater than 100 µM; in the data set on H460 cell line (24 h) it was 88.2 µM. Also, in the data set with erythrocytes, the “HC10 (concentration causing 10% of erythrocytes lysis)” value was 97.64 µM.

Turning to `CC[C@H](C)[C@H](NC(=O)[C@H](CCCCN)NC(=O)[C@@H]1CCCN1C(=O)[C@H](CC(C)C)NC(=O)[C@@H](NC(=O)[C@H](CO)NC(=O)[C@H](CCC(=O)N1CCCCC1)NC(=O)[C@H](CC(C)C)NC(=O)[C@H](CC(=O)O)NC(=O)[C@H](CC(=O)O)NC(=O)[C@H](Cc1ccccc1)NC(=O)[C@@H](NC(=O)[C@H](CCCCN)NC(=O)[C@@H]1CCCN1C(=O)[C@H](Cc1ccccc1)NC(=O)[C@H](Cc1ccccc1)NC(=O)[C@@H](NC(=O)[C@H](C)N)[C@@H](C)O)[C@@H](C)CC)[C@@H](C)CC)C(=O)N[C@@H](CC(C)C)C(N)=O` [239-2] (H-ATFFPKIFDDLE(Piperidide)SILPKIL-NH2), the concentration for half-maximal inhibition (IC50) in the data set with HEK-293 normal cell line (24 h) came to 44.8 ± 4.06 µM; with H460 cell line (24 h), 36.8 ± 3.25 µM. Besides, the “HC10 (concentration causing 10% of erythrocytes lysis)” value in the data set on erythrocytes is given as 57.04 µM.

`CC[C@H](C)[C@H](NC(=O)[C@H](CCCCN)NC(=O)[C@@H]1CCCN1C(=O)[C@H](CC(C)C)NC(=O)[C@@H](NC(=O)[C@H](CO)NC(=O)[C@H](CCC(=O)N1CCCCC1)NC(=O)[C@H](CC(C)C)NC(=O)[C@H](CC(=O)O)NC(=O)[C@H](CC(=O)O)NC(=O)[C@H](Cc1ccccc1)NC(=O)[C@@H](NC(=O)[C@H](CCCCN)NC(=O)[C@@H]1CCCN1C(=O)[C@H](Cc1ccccc1)NC(=O)[C@H](Cc1ccccc1)NC(=O)[C@H](CCCNC(=N)N)NC(=O)[C@H](C)N)[C@@H](C)CC)[C@@H](C)CC)C(=O)N[C@@H](CC(C)C)C(N)=O` [239-3] (H-ARFFPKIFDDLE(Piperidide)SILPKIL-NH2): the concentration for half-maximal inhibition (IC50) in the data set on HEK-293 normal cell line (24 h) came to 15 ± 1.38 µM; in the data set with H460 cell line (24 h) it was 14.7 ± 1.22 µM. Moreover, in the data set on erythrocytes, the “HC10 (concentration causing 10% of erythrocytes lysis)” value came to 24.72 µM.

For the compound `CC[C@H](C)[C@H](NC(=O)[C@H](CCCCN)NC(=O)[C@@H]1CCCN1C(=O)[C@H](CC(C)C)NC(=O)[C@@H](NC(=O)[C@H](CO)NC(=O)[C@H](CCC(=O)N1CCCCC1)NC(=O)[C@H](CC(C)C)NC(=O)[C@H](CC(=O)O)NC(=O)[C@H](CC(=O)O)NC(=O)[C@H](Cc1ccccc1)NC(=O)[C@@H](NC(=O)[C@H](CCCCN)NC(=O)[C@@H]1CCCN1C(=O)[C@H](Cc1ccccc1)NC(=O)[C@H](Cc1ccccc1)NC(=O)[C@H](CCCCN)NC(=O)[C@H](C)N)[C@@H](C)CC)[C@@H](C)CC)C(=O)N[C@@H](CC(C)C)C(N)=O` [239-4] (H-AKFFPKIFDDLE(Piperidide)SILPKIL-NH2), the results for the half-inhibitory concentration (IC50) with HEK-293 normal cell line (24 h) and in the data set on H460 cell line (24 h) were 31.5 ± 4.28 µM and 22.2 ± 1.06 µM, respectively. Further, the “HC10 (concentration causing 10% of erythrocytes lysis)” value in the data set with erythrocytes stood at 25.61 µM.

For `N.N.[Cl][Pt][Cl]` [Cisplatin, cisplatin, reference compound], the IC50 was 162 ± 18.8 µM in the data set on HEK-293 normal cell line (Table S11, MTT, read-out: IC50 Value of chemotherapeutics, HEK-293) and 203 ± 26.9 µM with H460 cell line (Table S11, MTT, read-out: IC50 Value of chemotherapeutics, H460).

`CC(=O)O[C@H]1C(=O)[C@@]2(C)[C@H]([C@H](OC(=O)c3ccccc3)[C@]3(O)C[C@H](OC(=O)[C@H](O)[C@@H](NC(=O)c4ccccc4)c4ccccc4)C(C)=C1C3(C)C)[C@]1(OC(C)=O)CO[C@@H]1C[C@@H]2O` [Paclitaxel, paclitaxel, reference compound]: the half-inhibitory concentration (IC50) with HEK-293 normal cell line (Homo sapiens, HEK293, Table S11, MTT, read-out: IC50 Value of chemotherapeutics, HEK-293) was less than 7 µM; with H460 cell line (Homo sapiens, NCI-H460, Table S11, MTT, read-out: IC50 Value of chemotherapeutics, H460), 220 ± 65 µM.

Regarding `CC[C@H](C)[C@H](NC(=O)[C@H](CCCCN)NC(=O)[C@@H]1CCCN1C(=O)[C@H](CC(C)C)NC(=O)[C@@H](NC(=O)[C@H](CO)NC(=O)[C@H](CCC(=O)N1CCCCC1)NC(=O)[C@H](CC(C)C)NC(=O)[C@H](CC(=O)O)NC(=O)[C@H](CC(=O)O)NC(=O)[C@H](Cc1ccccc1)NC(=O)[C@@H](NC(=O)[C@H](CCCCN)NC(=O)[C@@H]1CCCN1C(=O)[C@H](Cc1ccccc1)NC(=O)[C@@H](N)Cc1ccccc1)[C@@H](C)CC)[C@@H](C)CC)C(=O)N[C@@H](CC(C)C)C(=O)NCC(=O)N1CCC[C@H]1C(=O)N[C@@H](CC(C)C)C(=O)NCC(=O)N[C@@H](CC(C)C)C(=O)N[C@@H](C)C(=O)NCC(=O)NCCOCCOCCOCCOCCC(N)=O` [compound 204] (H-FFPKIFDDLE(Piperidide)SILPKILGPLGLAG[PEG4]-NH2), the figures for the IC50 with HEK-293 normal cell line (24 h) and in the data set on H460 cell line (24 h) were 34.1 ± 3.41 µM and 20 ± 1.05 µM, respectively. Besides, the “HC10 (concentration causing 10% of erythrocytes lysis)” value in the data set on erythrocytes came out at 46.10 µM.

Turning to `CC[C@H](C)[C@H](NC(=O)[C@H](CCCCN)NC(=O)[C@@H]1CCCN1C(=O)[C@H](CC(C)C)NC(=O)[C@@H](NC(=O)[C@H](CO)NC(=O)[C@H](CCC(=O)N1CCCCC1)NC(=O)[C@H](CC(C)C)NC(=O)[C@H](CC(=O)O)NC(=O)[C@H](CC(=O)O)NC(=O)[C@H](Cc1ccccc1)NC(=O)[C@@H](NC(=O)[C@H](CCCCN)NC(=O)[C@@H]1CCCN1C(=O)[C@H](Cc1ccccc1)NC(=O)[C@@H](N)Cc1ccccc1)[C@@H](C)CC)[C@@H](C)CC)C(=O)N[C@@H](CC(C)C)C(=O)NCC(=O)N1CCC[C@H]1C(=O)N[C@@H](CC(C)C)C(=O)NCC(=O)N[C@@H](CC(C)C)C(=O)N[C@@H](C)C(=O)NCC(=O)NCCOCCOCCOCCOCCC(=O)NCCOCCOCCOCCOCCC(N)=O` [compound 207] (H-FFPKIFDDLE(Piperidide)SILPKILGPLGLAG[PEG4][PEG4]-NH2), the half-maximal inhibitory concentration (IC50) with HEK-293 normal cell line (24 h) came to 44.2 ± 3.21 µM; in the data set on H460 cell line (24 h), 28 ± 1.59 µM. Besides, the “HC10 (concentration causing 10% of erythrocytes lysis)” value in the data set with erythrocytes stood at 69.26 µM.

With `CC[C@H](C)[C@H](NC(=O)[C@H](CCCCN)NC(=O)[C@@H]1CCCN1C(=O)[C@H](CC(C)C)NC(=O)[C@@H](NC(=O)[C@H](CO)NC(=O)[C@H](CCC(=O)N1CCCCC1)NC(=O)[C@H](CC(C)C)NC(=O)[C@H](CC(=O)O)NC(=O)[C@H](CC(=O)O)NC(=O)[C@H](Cc1ccccc1)NC(=O)[C@@H](NC(=O)[C@H](CCCCN)NC(=O)[C@@H]1CCCN1C(=O)[C@H](Cc1ccccc1)NC(=O)[C@@H](N)Cc1ccccc1)[C@@H](C)CC)[C@@H](C)CC)C(=O)N[C@@H](CC(C)C)C(=O)NCC(=O)NCC(=O)NCC(=O)NCC(=O)NCC(=O)NCC(=O)NCC(=O)NCCOCCOCCOCCOCCC(=O)NCCOCCOCCOCCOCCC(=O)NCCOCCOCCOCCOCCC(=O)NCCOCCOCCOCCOCCC(N)=O` [compound 288] (H-FFPKIFDDLE(Piperidide)SILPKILGGGGGGG[PEG4][PEG4][PEG4][PEG4]-NH2), the IC50 with HEK-293 normal cell line (24 h) and with H460 cell line (24 h) was greater than 100 µM throughout. Further, the “HC10 (concentration causing 10% of erythrocytes lysis)” value with erythrocytes is on record as greater than 100 µM.

AEFFPKIFDDLE(PIP)SILPKIL-NH2: the cleaved bond result in data set [1] was “Ala-E”.

On to AK(Ac)FFPKIFDDLE(PIP)SILPKIL-NH2, for which the fragment found in data set [1] is 239-4-Ac-1 FPKIFDDLE(PIP)SILPKIL-NH2 and 239-4-Ac-2 FFPKIFDDLE(PIP)SILPKIL-NH2.

On to AKFFPKIFDDLE(PIP)SILPKIL-NH2, for which, in data set [1], the cleaved bond entry is on record as “Ala-K”.

For the compound “AKFFPKIFDDLE(PIP)SILPKILGPLGLAG-(PEG4)6-NH2”, in data set [1], the not cleaved result is recorded as “nearly 100% remaining ratio after 24 h”.

As to ARFFPKIFDDLE(PIP)SILPKIL-NH2, the cleaved bond entry in data set [1] was “R-F, major”.

As for ATFFPKIFDDLE(PIP)SILPKIL-NH2, in data set [1], the cleaved bond result is listed as “F-F, major”.

Consider FFPKIFDDLE(PIP)SILPKIL-NH2, for which, in data set [1], the cleaved bond result was “Phe1-F”.

For “FFPKIFDDLE(PIP)SILPKILGPLGLAG-(PEG4)4-NH2”, in data set [1], the cleaved bond result is “Phe1-F”.
